Data reported in ChEMBL document CHEMBL1147597, “Synthesis and biological evaluations of novel benzimidazoles as potential antibacterial agents” (Bioorg Med Chem Lett, 2004).
Converted amounts (≈) assume the structure as drawn.

What was measured:
Staphylococcus aureus [1] = test: Minimal inhibitory concentration against gram positive Staphylococcus aureus 13709 strain (Range is 3-6 uM); assay type: functional
Staphylococcus aureus [2] = test: Minimal inhibitory concentration against Staphylococcus aureus (Range is 3-6 uM); assay type: functional
Enterococcus hirae [3] = test: Minimal inhibitory concentration against gram positive Enterococcus hirae 29212 strain (Range is 1-3 uM); assay type: functional
Pseudomonas aeruginosa [4] = test: Minimal inhibitory concentration against gram negative Pseudomonas aeruginosa 25416 strain (Range is 12-25 uM); assay type: functional
Streptococcus pyogenes [5] = test: Minimal inhibitory concentration against gram positive Streptococcus pyogenes 49399 strain (Range is 3-6 uM); assay type: functional
Escherichia coli [6] = test: Minimal inhibitory concentration against Escherichia coli (Range is 6-12 uM); assay type: functional
Streptococcus pneumoniae [7] = test: Minimal inhibitory concentration against gram positive Streptococcus pneumoniae 6303 strain (Range is 6-12 uM); assay type: functional
Escherichia coli [8] = test: Minimal inhibitory concentration against gram negative Escherichia coli 25922 strain (Range is 6-12 uM); assay type: functional; details: ATCC25922
Bacteria = test: Inhibitory activity against bacteria in the transcription/translation assay; assay type: functional, organism-based
Klebsiella pneumoniae [9] = test: Minimal inhibitory concentration against gram negative Klebsiella pneumoniae 13383 strain (Range is 6-12 uM); assay type: functional
Staphylococcus aureus [10] = test: Minimal inhibitory concentration against Staphylococcus aureus (Range is 12-25 uM); assay type: functional
Klebsiella pneumoniae [11] = test: Minimal inhibitory concentration against gram negative Klebsiella pneumoniae 13383 strain (Range is 25-50 uM); assay type: functional
Enterococcus hirae [12] = test: Minimal inhibitory concentration against gram positive Enterococcus hirae 29212 strain (Range is 0.75-1.5 uM); assay type: functional
Staphylococcus aureus [13] = test: Minimal inhibitory concentration against gram positive Staphylococcus aureus 13709 strain (Range is 3-7 uM); assay type: functional
Pseudomonas aeruginosa [14] = test: Minimal inhibitory concentration against gram negative Pseudomonas aeruginosa 25416 strain (Range is 6-12 uM); assay type: functional
Escherichia coli [15] = test: Minimal inhibitory concentration against gram negative Escherichia coli 25922 strain (Range is 12-26 uM); assay type: functional; details: ATCC25922
Escherichia coli [16] = test: Minimal inhibitory concentration against Escherichia coli (Range is 12-25 uM); assay type: functional
Streptococcus pyogenes [17] = test: Minimal inhibitory concentration against gram positive Streptococcus pyogenes 49399 strain (Range is 25-50 uM); assay type: functional
Proteus vulgaris [18] = test: Minimal inhibitory concentration against gram negative Proteus vulgaris 8427 strain (Range is 25-50 uM); assay type: functional
Staphylococcus aureus [19] = test: Minimal inhibitory concentration against Staphylococcus aureus (Range is 6-12 uM); assay type: functional
Escherichia coli [20] = test: Minimal inhibitory concentration against gram negative Escherichia coli 25922 strain (Range is 12-25 uM); assay type: functional; details: ATCC25922
Streptococcus pneumoniae [21] = test: Minimal inhibitory concentration against gram positive Streptococcus pneumoniae 6303 strain (Range is 12-25 uM); assay type: functional
Pseudomonas aeruginosa [22] = test: Minimal inhibitory concentration against gram negative Pseudomonas aeruginosa 25416 strain (Range is 25-50 uM); assay type: functional
Staphylococcus aureus [23] = test: Minimal inhibitory concentration against gram positive Staphylococcus aureus 13709 strain (Range is 6-12 uM); assay type: functional
Enterococcus hirae [24] = test: Minimal inhibitory concentration against gram positive Enterococcus hirae 29212 strain (Range is 3-6 uM); assay type: functional
Streptococcus pyogenes [25] = test: Minimal inhibitory concentration against gram positive Streptococcus pyogenes 49399 strain (Range is 6-12 uM); assay type: functional
Proteus vulgaris [26] = test: Minimal inhibitory concentration against gram negative Proteus vulgaris 8427 strain; assay type: functional
Escherichia coli [27] = test: Minimal inhibitory concentration against gram negative Escherichia coli 25922 strain; assay type: functional; details: ATCC25922
Escherichia coli [28] = test: Minimal inhibitory concentration against Escherichia coli; assay type: functional
Klebsiella pneumoniae [29] = test: Minimal inhibitory concentration against gram negative Klebsiella pneumoniae 13383 strain (Range is 50-100 uM); assay type: functional
Pseudomonas aeruginosa [30] = test: Minimal inhibitory concentration against gram negative Pseudomonas aeruginosa 25416 strain; assay type: functional
Enterococcus hirae [31] = test: Minimal inhibitory concentration against gram positive Enterococcus hirae 29212 strain (Range is 25-50 uM); assay type: functional

Work on `Clc1cc2nc(C3CCNCC3)n(Cc3ccc(Cn4c(C5CCNCC5)nc5cc(Cl)c(Cl)cc54)cc3)c2cc1Cl` yielded an MIC (Staphylococcus aureus [1]) of 6 µM (≈ 3.85 µg/mL), an MIC (Staphylococcus aureus [2]) of 6 µM (≈ 3.85 µg/mL) and an MIC (Enterococcus hirae [3]) of 3 µM (≈ 1.93 µg/mL). For the same compound, the MIC (Pseudomonas aeruginosa [4]) was 25 µM (≈ 16.1 µg/mL), the MIC (Streptococcus pyogenes [5]) was 6 µM (≈ 3.85 µg/mL) and the MIC (Escherichia coli [6]) was 12 µM (≈ 7.71 µg/mL). The MIC (Streptococcus pneumoniae [7]) was 12 µM (≈ 7.71 µg/mL), the MIC (Escherichia coli [8]) was 12 µM (≈ 7.71 µg/mL) and the IC50 (Bacteria) was > 100 µM. It also gave an MIC (Klebsiella pneumoniae [9]) of 12 µM (≈ 7.71 µg/mL).

With `Clc1cc2nc(C3CCNCC3)n(CCCCCn3c(C4CCNCC4)nc4cc(Cl)c(Cl)cc43)c2cc1Cl` the MIC (Staphylococcus aureus [10]) was 25 µM (≈ 15.2 µg/mL), the MIC (Klebsiella pneumoniae [11]) was 50 µM (≈ 30.4 µg/mL) and the MIC (Enterococcus hirae [12]) was 1.5 µM (≈ 0.913 µg/mL). It also gave an MIC (Staphylococcus aureus [13]) of 7 µM (≈ 4.26 µg/mL), an MIC (Pseudomonas aeruginosa [14]) of 12 µM (≈ 7.3 µg/mL) and an MIC (Streptococcus pneumoniae [7]) of 12 µM (≈ 7.3 µg/mL). It also gave an MIC (Escherichia coli [15]) of 26 µM (≈ 15.8 µg/mL), an MIC (Escherichia coli [16]) of 25 µM (≈ 15.2 µg/mL) and an MIC (Streptococcus pyogenes [17]) of 50 µM (≈ 30.4 µg/mL). For the same compound, the IC50 (Bacteria) was 35 µM and the MIC (Proteus vulgaris [18]) was 50 µM (≈ 30.4 µg/mL).

In the case of `O=C(Cn1c(C2CCNCC2)nc2cc(Cl)c(Cl)cc21)NNC(=O)Nc1ccc2ccccc2c1`, the MIC (Staphylococcus aureus [19]) is reported as 12 µM (≈ 6.14 µg/mL), the MIC (Escherichia coli [20]) is reported as 25 µM (≈ 12.8 µg/mL) and the MIC (Streptococcus pneumoniae [21]) is reported as 25 µM (≈ 12.8 µg/mL). The MIC (Pseudomonas aeruginosa [22]) was 50 µM (≈ 25.6 µg/mL), the MIC (Staphylococcus aureus [23]) was 12 µM (≈ 6.14 µg/mL) and the MIC (Enterococcus hirae [24]) was 6 µM (≈ 3.07 µg/mL). For the same compound, the MIC (Escherichia coli [16]) was 25 µM (≈ 12.8 µg/mL), the MIC (Streptococcus pyogenes [25]) was 12 µM (≈ 6.14 µg/mL) and the IC50 (Bacteria) was > 100 µM. For the same compound, the MIC (Klebsiella pneumoniae [9]) was 12 µM (≈ 6.14 µg/mL) and the MIC (Proteus vulgaris [18]) was 50 µM (≈ 25.6 µg/mL).

In the case of `O=C1C=CC(=O)N1CCCCCn1c(C2CCNCC2)nc2cc(Cl)c(Cl)cc21`, the MIC (Staphylococcus aureus [19]) is reported as 12 µM (≈ 5.22 µg/mL), the MIC (Proteus vulgaris [26]) is reported as > 100 µM and the MIC (Escherichia coli [27]) is reported as > 100 µM. For the same compound, the MIC (Escherichia coli [28]) was > 100 µM, the MIC (Klebsiella pneumoniae [29]) was 100 µM (≈ 43.5 µg/mL) and the MIC (Streptococcus pneumoniae [7]) was 12 µM (≈ 5.22 µg/mL). For the same compound, the MIC (Staphylococcus aureus [23]) was 12 µM (≈ 5.22 µg/mL), the MIC (Pseudomonas aeruginosa [30]) was > 100 µM and the MIC (Streptococcus pyogenes [17]) was 50 µM (≈ 21.8 µg/mL). The IC50 (Bacteria) was > 100 µM and the MIC (Enterococcus hirae [31]) was 50 µM (≈ 21.8 µg/mL).
